Results: ChEMBL document CHEMBL5608207, “Development of narrow-spectrum topoisomerase-targeting antibacterials against mycobacteria” (Eur J Med Chem, 2024)
In brackets after ≈: the same amount, converted by molar mass. Activity calls are given as the source filed them. The calls are words filed in the database; no cut-off is given here.

Legend:
[1] = tested on: Mycobacteroides abscessus; test: Antimycobacterial activity against Mycobacterium abscessus RIVM incubated for 1 day by resazurin reduction microplate assay; format: functional; details: 24 h
[2] = tested on: Mycolicibacterium smegmatis; test: Antimycobacterial activity against Mycobacterium smegmatis MC2 incubated for 2 days by resazurin reduction microplate assay; format: functional; details: MC2, 48 h, time 2 day
[3] = tested on: Mycobacterium tuberculosis; test: Antimycobacterial activity against Mycobacterium tuberculosis H37Rv ATCC 25618 assessed as reduction in viability incubated for 6 days by resazurin reduction microplate assay; format: functional; details: H37Rv ATCC 25618, 144 h, time 6 day
Escherichia coli = test: Antibacterial activity against Escherichia coli ATCC 25922 incubated for 18 hrs by serial broth microdilution method; format: functional
[4] = tested on: Mycobacterium tuberculosis; test: (§1) Antimycobacterial activity against GFP-expressing Mycobacterium tuberculosis H37Rv infected in PMA-treated THP-1 cells assessed as number of viable macrophages at 10 uM pre-infected for 3 hrs prior to gentamycin addition for 1 hr followed by washout and compound addition measured after 4 days by fluorescence microscopic analysis; format: functional
[5] = tested on: Mycobacterium tuberculosis; test: as §1, with “bacterial viability” for “number of viable macrophages”, “analysis (reference value: 100%)” for “analysis”; format: functional; details: time 4 day
Acinetobacter baumannii [6] = test: Antibacterial activity against Acinetobacter baumannii; format: functional
[7] = tested on: Mycobacterium tuberculosis; test: Antimycobacterial activity against Mycobacterium tuberculosis H37Rv ATCC 25618 assessed as reduction in viability at 5 uM incubated for 6 days by resazurin reduction microplate assay; format: functional; details: time 6 day
Pseudomonas aeruginosa [8] = test: Antibacterial activity against Pseudomonas aeruginosa; format: functional
THP-1 [9] = test: Cytotoxicity against replicating human THP-1 cells; format: toxicity, cell-based
[10] = Inhibition of Mycobacterium tuberculosis DNA gyrase B
THP-1 [11] = test: Cytotoxicity against human THP-1 cells pretreated with PMA for 48 hrs followed by washout and compound addition for 5 days by resazurin sodium salt method; format: toxicity, cell-based; details: thp-1, 120 h, time 5 day
[12] = molecular target: DNA topoisomerase 2-alpha (Homo sapiens) (UniProt P11388); test: Inhibition of human DNA topoisomerase II alpha assessed as residual activity at 100 uM using supercoiled pNO1 plasmid as substrate incubated for 30 mins by diamond dye staining based fluorescence microplate reader assay relative to control
[13] = molecular target: DNA topoisomerase 2-alpha (Homo sapiens) (UniProt P11388); test: Inhibition of human DNA topoisomerase II alpha assessed as residual activity at 10 uM using supercoiled pNO1 plasmid as substrate incubated for 30 mins by diamond dye staining based fluorescence microplate reader assay relative to control
Pseudomonas aeruginosa [14] = test: Antibacterial activity against Pseudomonas aeruginosa ATCC 27853 incubated for 18 hrs by serial broth microdilution method; format: functional
Staphylococcus aureus = test: Antibacterial activity against Staphylococcus aureus ATCC 29213 incubated for 18 hrs by serial broth microdilution method; format: functional
Acinetobacter baumannii [15] = test: Antibacterial activity against Acinetobacter baumannii ATCC17978 incubated for 18 hrs by serial broth microdilution method; format: functional
Enterobacter cloacae = test: Antibacterial activity against Enterobacter cloacae ATCC13047 incubated for 18 hrs by serial broth microdilution method; format: functional
Klebsiella pneumoniae = test: Antibacterial activity against Klebsiella pneumoniae ATCC10031 incubated for 18 hrs by serial broth microdilution method; format: functional

DNA topoisomerase 2-alpha (Homo sapiens), sequence (P11388 whole entry): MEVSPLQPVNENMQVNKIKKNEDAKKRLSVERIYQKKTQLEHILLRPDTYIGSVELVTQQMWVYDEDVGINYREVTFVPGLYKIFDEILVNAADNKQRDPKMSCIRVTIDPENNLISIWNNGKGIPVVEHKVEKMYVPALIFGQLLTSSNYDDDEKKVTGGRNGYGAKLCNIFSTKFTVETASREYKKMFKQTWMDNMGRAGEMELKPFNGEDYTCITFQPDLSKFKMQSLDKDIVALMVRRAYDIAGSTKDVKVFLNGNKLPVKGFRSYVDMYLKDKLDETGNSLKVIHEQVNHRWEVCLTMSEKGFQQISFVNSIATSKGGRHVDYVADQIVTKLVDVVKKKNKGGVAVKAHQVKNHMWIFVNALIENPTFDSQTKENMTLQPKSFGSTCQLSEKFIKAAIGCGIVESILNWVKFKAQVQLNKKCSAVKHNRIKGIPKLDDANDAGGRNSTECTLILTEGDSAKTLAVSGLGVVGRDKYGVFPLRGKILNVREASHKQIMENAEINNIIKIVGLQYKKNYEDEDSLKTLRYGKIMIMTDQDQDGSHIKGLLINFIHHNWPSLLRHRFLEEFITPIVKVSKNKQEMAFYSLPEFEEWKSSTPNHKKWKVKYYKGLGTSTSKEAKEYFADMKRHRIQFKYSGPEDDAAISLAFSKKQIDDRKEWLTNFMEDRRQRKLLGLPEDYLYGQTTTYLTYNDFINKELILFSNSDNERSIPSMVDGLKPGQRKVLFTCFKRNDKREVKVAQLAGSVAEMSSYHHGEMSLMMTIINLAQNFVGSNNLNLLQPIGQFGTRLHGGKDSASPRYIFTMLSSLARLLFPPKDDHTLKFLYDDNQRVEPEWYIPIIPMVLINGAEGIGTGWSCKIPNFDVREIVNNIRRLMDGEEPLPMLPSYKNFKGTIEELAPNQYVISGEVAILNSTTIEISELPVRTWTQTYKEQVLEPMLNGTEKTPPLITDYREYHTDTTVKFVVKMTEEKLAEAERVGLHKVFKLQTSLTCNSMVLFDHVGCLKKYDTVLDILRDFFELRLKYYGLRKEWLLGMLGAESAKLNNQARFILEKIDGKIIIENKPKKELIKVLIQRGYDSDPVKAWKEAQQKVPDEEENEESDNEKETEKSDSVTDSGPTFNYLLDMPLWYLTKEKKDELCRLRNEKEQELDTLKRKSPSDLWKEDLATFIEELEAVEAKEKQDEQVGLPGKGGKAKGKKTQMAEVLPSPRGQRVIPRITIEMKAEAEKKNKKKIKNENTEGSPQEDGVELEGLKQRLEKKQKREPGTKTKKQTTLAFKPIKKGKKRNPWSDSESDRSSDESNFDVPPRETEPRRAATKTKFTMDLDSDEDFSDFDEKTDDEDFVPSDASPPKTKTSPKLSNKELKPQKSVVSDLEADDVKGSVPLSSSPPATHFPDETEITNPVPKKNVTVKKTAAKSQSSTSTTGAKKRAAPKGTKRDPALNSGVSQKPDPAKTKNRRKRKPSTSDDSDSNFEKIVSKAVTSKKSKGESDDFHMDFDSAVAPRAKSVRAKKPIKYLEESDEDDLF

**Q.** What does the source list for `Cc1[nH]c(C(=O)Nc2nc3c(OCC(C)N(C)C)cc(C(=O)O)cc3s2)c(Cl)c1Cl` (configuration not stated)?
**A.** MIC90 [1]: 0.63 µM (≈ 0.297 µg/mL); MIC90 [2]: 10 µM (≈ 4.71 µg/mL); MIC90 [3]: 40 µM (≈ 18.9 µg/mL)

**Q.** With `Cc1[nH]c(C(=O)Nc2nc3c(OC(CN4CCN(C)CC4)c4ccccc4)cc(C(=O)O)cc3s2)c(Cl)c1Cl` (configuration not stated) as the molecule, how does the MIC90 [1] read?
**A.** 2.5 µM (≈ 1.47 µg/mL)

**Q.** And the MIC90 [2]?
**A.** 2.5 µM (≈ 1.47 µg/mL)

**Q.** What about the MIC90 [3] of the same molecule?
**A.** 20 µM (≈ 11.8 µg/mL)

**Q.** Which MIC90 [1] does the source give for `Cc1[nH]c(C(=O)Nc2nc3c(OC(CN4CCC(N)CC4)c4ccccc4)cc(C(=O)O)cc3s2)c(Cl)c1Cl` (configuration not stated) here?
**A.** 0.63 µM (≈ 0.371 µg/mL)

**Q.** And the MIC90 [2]?
**A.** 0.63 µM (≈ 0.371 µg/mL)

**Q.** And the Activity (Escherichia coli)?
**A.** Active

**Q.** And the MIC90 [3]?
**A.** 1.25 µM (≈ 0.736 µg/mL)

**Q.** Which results are given for `Cc1[nH]c(C(=O)Nc2nc3ccc(C(=O)O)cc3s2)c(Cl)c1Cl`?
**A.** Activity ([4]; time 4.0 day): inactive; Activity [5]: 14%; MIC (Acinetobacter baumannii [6]): 4 µg/mL (≈ 10.8 µM); Activity [7]: 57%; MIC (Pseudomonas aeruginosa [8]): 8 µg/mL (≈ 21.6 µM); Activity (THP-1 [9]): Non-Toxic; IC50 [10]: 24.5 nM; Activity (THP-1 [11]): Non-Toxic

**Q.** With `CO[C@H]1/C=C/O[C@@]2(C)Oc3c(C)c(O)c4c(O)c(c(/C=N/N5CCN(C)CC5)c(O)c4c3C2=O)NC(=O)/C(C)=C\C=C\[C@H](C)[C@H](O)[C@@H](C)[C@@H](O)[C@@H](C)[C@H](OC(C)=O)[C@@H]1C` [RIFAMPIN] as the molecule, how does the Activity ([4]; time 4 day) read?
**A.** 100%

**Q.** And the Activity [5]?
**A.** 1.4%

**Q.** With `Cc1[nH]c(C(=O)Nc2nc3c(OC(CN(C)C)c4ccccc4)cc(C(=O)O)cc3s2)cc1F` (configuration not stated) as the molecule, how does the MIC90 [1] read?
**A.** 0.31 µM (≈ 0.15 µg/mL)

**Q.** And the Activity [12]?
**A.** 99%

**Q.** What about the Activity [13] of the same molecule?
**A.** 99%

**Q.** What about the MIC90 [2] of the same molecule?
**A.** 1.25 µM (≈ 0.603 µg/mL)

**Q.** And the MIC90 (Pseudomonas aeruginosa [14])?
**A.** 33 µM (≈ 15.9 µg/mL)

**Q.** What about the MIC90 (Staphylococcus aureus) of the same molecule?
**A.** 33 µM (≈ 15.9 µg/mL)

**Q.** What about the MIC90 (Escherichia coli) of the same molecule?
**A.** 133 µM (≈ 64.2 µg/mL)

**Q.** And the MIC90 (Acinetobacter baumannii [15])?
**A.** > 133 µM

**Q.** And the MIC90 (Enterobacter cloacae)?
**A.** > 133 µM

**Q.** What about the MIC90 (Klebsiella pneumoniae) of the same molecule?
**A.** 2 µM (≈ 0.965 µg/mL)

**Q.** And the MIC90 [3]?
**A.** 2.5 µM (≈ 1.21 µg/mL)

**Q.** With `C[C@H]1COc2c(N3CCN(C)CC3)c(F)cc3c(=O)c(C(=O)O)cn1c23` [LEVOFLOXACIN ANHYDROUS] as the molecule, how does the Activity [5] read?
**A.** 2.3%

**Q.** With `NNC(=O)c1ccncc1` [ISONIAZID] as the molecule, how does the Activity [5] read?
**A.** 4.9%

**Q.** With `Cc1[nH]c(C(=O)Nc2nc3c(OC(CN4CCOCC4)C4CC4)cc(C(=O)O)cc3s2)cc1F` (configuration not stated) as the molecule, how does the MIC90 [1] read?
**A.** 1.25 µM (≈ 0.611 µg/mL)

**Q.** What about the MIC90 [2] of the same molecule?
**A.** 2.5 µM (≈ 1.22 µg/mL)

**Q.** And the MIC90 (Pseudomonas aeruginosa [14])?
**A.** > 131 µM

**Q.** What about the MIC90 (Staphylococcus aureus) of the same molecule?
**A.** 131 µM (≈ 64 µg/mL)

**Q.** And the MIC90 (Escherichia coli)?
**A.** > 131 µM

**Q.** And the MIC90 (Acinetobacter baumannii [15])?
**A.** > 131 µM

**Q.** And the MIC90 (Enterobacter cloacae)?
**A.** > 131 µM

**Q.** What about the MIC90 (Klebsiella pneumoniae) of the same molecule?
**A.** 33 µM (≈ 16.1 µg/mL)

**Q.** And the MIC90 [3]?
**A.** > 20 µM
